Experimental data published in PubChem BioAssay (NCI).
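Where inhibition never reached the appropriate level, the endpoint shown equals the highest concentration tested. Otherwise, values were interpolated linearly from a five-concentration, 48-hour dose response in 96-well plates. The concentration for 50% growth inhibition is given as GI50. TGI: total growth inhibition.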

How the values were obtained:
Assay in all cases: DTP human tumour cell line panel, 48 h
HOP-92 NSCLC = system: HOP-92 NSCLC
SF-268 CNS = system: SF-268 CNS
PC-3 prostate = system: PC-3 prostate
LOX IMVI melanoma = system: LOX IMVI melanoma
T-47D breast = system: T-47D breast
A549 NSCLC = system: A549 NSCLC
CCRF-CEM leukemia = system: CCRF-CEM leukemia
NCI-H226 lung = system: NCI-H226 lung
RPMI-8226 leukemia = system: RPMI-8226 leukemia
SK-MEL-28 melanoma = system: SK-MEL-28 melanoma
TK-10 renal = system: TK-10 renal
A498 renal = system: A498 renal
NCI-H522 lung = system: NCI-H522 lung
786-0 renal = system: 786-0 renal
UACC-62 melanoma = system: UACC-62 melanoma
OVCAR-3 ovarian = system: OVCAR-3 ovarian
SK-MEL-2 melanoma = system: SK-MEL-2 melanoma
SR leukemia = system: SR leukemia
SNB-19 CNS = system: SNB-19 CNS
KM12 colon = system: KM12 colon
MCF7 breast = system: MCF7 breast
OVCAR-8 ovarian = system: OVCAR-8 ovarian
HOP-62 NSCLC = system: HOP-62 NSCLC
SK-MEL-5 melanoma = system: SK-MEL-5 melanoma
MDA-MB-231 breast = system: MDA-MB-231 breast
U251 CNS = system: U251 CNS
SNB-75 CNS = system: SNB-75 CNS
HL-60(TB) leukemia = system: HL-60(TB) leukemia
SN12C renal = system: SN12C renal
COLO 205 colon = system: COLO 205 colon
NCI-H23 lung = system: NCI-H23 lung
HCC-2998 colon = system: HCC-2998 colon
MALME-3M melanoma = system: MALME-3M melanoma
HCT-116 colon = system: HCT-116 colon
SF-295 CNS = system: SF-295 CNS
NCI/ADR-RES ovarian = system: NCI/ADR-RES ovarian
UO-31 renal = system: UO-31 renal
ACHN renal = system: ACHN renal
RXF 393 renal = system: RXF 393 renal
IGROV1 ovarian = system: IGROV1 ovarian
HCT-15 colon = system: HCT-15 colon
CAKI-1 renal = system: CAKI-1 renal
MOLT-4 leukemia = system: MOLT-4 leukemia
OVCAR-5 ovarian = system: OVCAR-5 ovarian
HS 578T breast = system: HS 578T breast
HT29 colon = system: HT29 colon
OVCAR-4 ovarian = system: OVCAR-4 ovarian
SF-539 CNS = system: SF-539 CNS
NCI-H460 lung = system: NCI-H460 lung
DU-145 prostate = system: DU-145 prostate
SW-620 colon = system: SW-620 colon
BT-549 breast = system: BT-549 breast
MDA-MB-435 = system: MDA-MB-435
M14 melanoma = system: M14 melanoma
UACC-257 melanoma = system: UACC-257 melanoma
K-562 leukemia = system: K-562 leukemia
SK-OV-3 ovarian = system: SK-OV-3 ovarian

`O=C(Nc1ccc(F)cc1)c1c(NC(=O)C(F)(F)F)sc2c1CCCCC2` was tested, and the GI50 (HOP-92 NSCLC) was 269 nM, the TGI (HOP-92 NSCLC) was 1380 nM and the GI50 (SF-268 CNS) was 2280 nM. The TGI (SF-268 CNS) was 88000 nM, the GI50 (PC-3 prostate) was 1590 nM and the TGI (PC-3 prostate) was 7870 nM. For the same compound, the GI50 (LOX IMVI melanoma) was 2430 nM, the TGI (LOX IMVI melanoma) was 13200 nM and the GI50 (T-47D breast) was 1620 nM. The TGI (T-47D breast) was 5610 nM, the GI50 (A549 NSCLC) was 2640 nM and the TGI (A549 NSCLC) was 12000 nM. The GI50 (CCRF-CEM leukemia) was 1500 nM, the TGI (CCRF-CEM leukemia) was 15100 nM and the GI50 (NCI-H226 lung) was 1760 nM. It also gave a TGI (NCI-H226 lung) of 5460 nM, a GI50 (RPMI-8226 leukemia) of 917 nM and a TGI (RPMI-8226 leukemia) of 4140 nM. The GI50 (SK-MEL-28 melanoma) was 2110 nM, the TGI (SK-MEL-28 melanoma) was 13900 nM and the GI50 (TK-10 renal) was 3960 nM. It also gave a TGI (TK-10 renal) of 12500 nM, a GI50 (A498 renal) of 52.7 nM and a TGI (A498 renal) of 752 nM. The GI50 (NCI-H522 lung) was 1330 nM, the TGI (NCI-H522 lung) was 7410 nM and the GI50 (786-0 renal) was 2430 nM. For the same compound, the TGI (786-0 renal) was 10500 nM, the GI50 (UACC-62 melanoma) was 585 nM and the TGI (UACC-62 melanoma) was 5190 nM. The GI50 (OVCAR-3 ovarian) was 2040 nM, the TGI (OVCAR-3 ovarian) was 16300 nM and the GI50 (SK-MEL-2 melanoma) was 1470 nM. The TGI (SK-MEL-2 melanoma) was 6750 nM, the GI50 (SR leukemia) was 1290 nM and the TGI (SR leukemia) was > 100000 nM. The GI50 (SNB-19 CNS) was 1560 nM, the TGI (SNB-19 CNS) was 21400 nM and the GI50 (KM12 colon) was 1960 nM. The TGI (KM12 colon) was 9230 nM, the GI50 (MCF7 breast) was 1970 nM and the TGI (MCF7 breast) was 9840 nM. For the same compound, the GI50 (OVCAR-8 ovarian) was 2800 nM, the TGI (OVCAR-8 ovarian) was > 100000 nM and the GI50 (HOP-62 NSCLC) was 2260 nM. It also gave a TGI (HOP-62 NSCLC) of 6480 nM, a GI50 (SK-MEL-5 melanoma) of 592 nM and a TGI (SK-MEL-5 melanoma) of 2100 nM. The GI50 (MDA-MB-231 breast) was 1750 nM, the TGI (MDA-MB-231 breast) was 7300 nM and the GI50 (U251 CNS) was 1730 nM. For the same compound, the TGI (U251 CNS) was > 100000 nM, the GI50 (SNB-75 CNS) was 1340 nM and the TGI (SNB-75 CNS) was 5570 nM. For the same compound, the GI50 (HL-60(TB) leukemia) was 2680 nM, the TGI (HL-60(TB) leukemia) was 8320 nM and the GI50 (SN12C renal) was 1940 nM. For the same compound, the TGI (SN12C renal) was 8670 nM, the GI50 (COLO 205 colon) was 1550 nM and the TGI (COLO 205 colon) was 3590 nM. For the same compound, the GI50 (NCI-H23 lung) was 2000 nM, the TGI (NCI-H23 lung) was 8820 nM and the GI50 (HCC-2998 colon) was 2060 nM. The TGI (HCC-2998 colon) was 10000 nM, the GI50 (MALME-3M melanoma) was 1810 nM and the TGI (MALME-3M melanoma) was 5720 nM. For the same compound, the GI50 (HCT-116 colon) was 2050 nM, the TGI (HCT-116 colon) was 10300 nM and the GI50 (SF-295 CNS) was 1010 nM. The TGI (SF-295 CNS) was 3260 nM, the GI50 (NCI/ADR-RES ovarian) was 2010 nM and the TGI (NCI/ADR-RES ovarian) was 7820 nM. It also gave a GI50 (UO-31 renal) of 1870 nM, a TGI (UO-31 renal) of 6900 nM and a GI50 (ACHN renal) of 2110 nM. The TGI (ACHN renal) was 7930 nM, the GI50 (RXF 393 renal) was 1750 nM and the TGI (RXF 393 renal) was 6560 nM. The GI50 (IGROV1 ovarian) was 2990 nM, the TGI (IGROV1 ovarian) was 15500 nM and the GI50 (HCT-15 colon) was 2590 nM. The TGI (HCT-15 colon) was 10800 nM, the GI50 (CAKI-1 renal) was 1350 nM and the TGI (CAKI-1 renal) was 5170 nM. For the same compound, the GI50 (MOLT-4 leukemia) was 2650 nM, the TGI (MOLT-4 leukemia) was 15200 nM and the GI50 (OVCAR-5 ovarian) was 2890 nM. The TGI (OVCAR-5 ovarian) was 13100 nM, the GI50 (HS 578T breast) was 633 nM and the TGI (HS 578T breast) was 4570 nM. The GI50 (HT29 colon) was 2480 nM, the TGI (HT29 colon) was 13500 nM and the GI50 (OVCAR-4 ovarian) was 1650 nM. The TGI (OVCAR-4 ovarian) was 8340 nM, the GI50 (SF-539 CNS) was 2040 nM and the TGI (SF-539 CNS) was 11800 nM. For the same compound, the GI50 (NCI-H460 lung) was 2130 nM, the TGI (NCI-H460 lung) was 10000 nM and the GI50 (DU-145 prostate) was 3430 nM. The TGI (DU-145 prostate) was 87100 nM, the GI50 (SW-620 colon) was 2510 nM and the TGI (SW-620 colon) was 11900 nM. The GI50 (BT-549 breast) was 2080 nM, the TGI (BT-549 breast) was 6850 nM and the GI50 (MDA-MB-435) was 2690 nM. It also gave a TGI (MDA-MB-435) of 17000 nM, a GI50 (M14 melanoma) of 2910 nM and a TGI (M14 melanoma) of 13400 nM. The GI50 (UACC-257 melanoma) was 2210 nM, the TGI (UACC-257 melanoma) was 7170 nM and the GI50 (K-562 leukemia) was 1970 nM. For the same compound, the TGI (K-562 leukemia) was > 100000 nM, the GI50 (SK-OV-3 ovarian) was 2050 nM and the TGI (SK-OV-3 ovarian) was 6370 nM.
